Reference: ChEMBL document CHEMBL2424599, “Design, synthesis, docking study and biological evaluation of some novel tetrahydrochromeno [3',4':5,6]pyrano[2,3-b]quinolin-6(7H)-one derivatives against acetyl- and butyrylcholinesterase” (Eur J Med Chem, 2013)

These molecules were tested against T1, Acetylcholinesterase (Electrophorus electricus, UniProt O42275).
T1 sequence (O42275 whole entry): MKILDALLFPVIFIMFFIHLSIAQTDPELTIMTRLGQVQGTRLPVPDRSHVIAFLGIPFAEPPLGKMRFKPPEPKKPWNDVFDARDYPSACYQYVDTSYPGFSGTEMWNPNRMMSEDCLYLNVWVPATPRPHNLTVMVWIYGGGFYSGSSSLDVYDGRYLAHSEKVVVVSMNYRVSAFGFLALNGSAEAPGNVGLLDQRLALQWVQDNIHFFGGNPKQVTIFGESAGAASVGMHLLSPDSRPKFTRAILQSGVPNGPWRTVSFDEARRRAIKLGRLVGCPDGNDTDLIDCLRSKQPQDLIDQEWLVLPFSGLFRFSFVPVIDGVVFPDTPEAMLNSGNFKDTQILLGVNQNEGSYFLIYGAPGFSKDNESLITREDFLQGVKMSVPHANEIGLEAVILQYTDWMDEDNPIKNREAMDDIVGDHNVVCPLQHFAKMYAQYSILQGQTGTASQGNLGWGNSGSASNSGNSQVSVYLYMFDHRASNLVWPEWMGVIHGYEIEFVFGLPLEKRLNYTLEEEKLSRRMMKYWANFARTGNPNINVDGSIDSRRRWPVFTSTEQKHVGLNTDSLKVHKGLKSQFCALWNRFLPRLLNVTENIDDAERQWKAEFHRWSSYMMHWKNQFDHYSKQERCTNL
Description: Inhibition of electric eel AChE using acetylthiocholine iodide as substrate preincubated for 10 mins prior to substrate addition by Ellman's method
Molecule `CCCCC1c2c(nc3c(c2N)CCCC3)Oc2c1c(=O)oc1ccccc21` (configuration not stated) has an IC50 of 57 nM. `COc1ccc(C2c3c(nc4c(c3N)CCCC4)Oc3c2c(=O)oc2ccccc32)cc1OC` (configuration not stated) gave an IC50 of 43 nM. `COc1cc(C2c3c(nc4c(c3N)CCCC4)Oc3c2c(=O)oc2ccccc32)cc(OC)c1OC` (configuration not stated) was tested, and the IC50 was 69 nM. Molecule `Nc1c2c(nc3c1C(c1ccccc1)c1c(c4ccccc4oc1=O)O3)CCCC2` (configuration not stated) has an IC50 of 24 nM. `Nc1c2c(nc3c1C(c1ccc4c(c1)OCO4)c1c(c4ccccc4oc1=O)O3)CCCC2` (configuration not stated) was tested, and the IC50 was 13 nM. `Cc1ccc(C2c3c(nc4c(c3N)CCCC4)Oc3c2c(=O)oc2ccccc32)cc1` (configuration not stated) gave an IC50 of 14 nM. For `Nc1c2c(nc3c1C(c1ccncc1)c1c(c4ccccc4oc1=O)O3)CCCC2` (configuration not stated), the IC50 was 53 nM. For `Nc1c2c(nc3c1C(c1ccc(Cl)cc1Cl)c1c(c4ccccc4oc1=O)O3)CCCC2` (configuration not stated), the IC50 was 50 nM. `Nc1c2c(nc3c1C(c1cccc([N+](=O)[O-])c1)c1c(c4ccccc4oc1=O)O3)CCCC2` (configuration not stated) was tested, and the IC50 was 141 nM. `Nc1c2c(nc3c1C(c1ccccc1Cl)c1c(c4ccccc4oc1=O)O3)CCCC2` (configuration not stated) was tested, and the IC50 was 35 nM. `CC1c2c(nc3c(c2N)CCCC3)Oc2c1c(=O)oc1ccccc21` (configuration not stated) was tested, and the IC50 was 432 nM. Molecule `COc1ccc(C2c3c(nc4c(c3N)CCCC4)Oc3c2c(=O)oc2ccccc32)cc1` (configuration not stated) has an IC50 of 16 nM. `Nc1c2c(nc3c1C(c1cccc(F)c1)c1c(c4ccccc4oc1=O)O3)CCCC2` (configuration not stated) was tested, and the IC50 was 67 nM. In the case of `Nc1c2c(nc3c1C(c1ccc(F)cc1)c1c(c4ccccc4oc1=O)O3)CCCC2` (configuration not stated), the IC50 is reported as 5 nM. `CCC1c2c(nc3c(c2N)CCCC3)Oc2c1c(=O)oc1ccccc21` (configuration not stated) gave an IC50 of 266 nM. In the case of `Nc1c2c(nc3c1C(c1ccc(Cl)cc1)c1c(c4ccccc4oc1=O)O3)CCCC2` (configuration not stated), the IC50 is reported as 93 nM. With `Nc1c2c(nc3c1C(c1cccc(Cl)c1)c1c(c4ccccc4oc1=O)O3)CCCC2` (configuration not stated) the IC50 was 288 nM. For `Nc1c2c(nc3c1C(c1cccs1)c1c(c4ccccc4oc1=O)O3)CCCC2` (configuration not stated), the IC50 was 84 nM.

The molecules below were run against T1, Acetylcholinesterase (assay: Mixed-type inhibition of electric eel AChE using acetylthiocholine iodide as substrate by Lineweaver-Burk plot analysis).
`Nc1c2c(nc3c1C(c1ccc(F)cc1)c1c(c4ccccc4oc1=O)O3)CCCC2` (configuration not stated) was tested, and the Ki was 22.4 nM.

These molecules were tested against Cholinesterase (Equus caballus, UniProt P81908).
Chain of Cholinesterase (P81908 whole entry): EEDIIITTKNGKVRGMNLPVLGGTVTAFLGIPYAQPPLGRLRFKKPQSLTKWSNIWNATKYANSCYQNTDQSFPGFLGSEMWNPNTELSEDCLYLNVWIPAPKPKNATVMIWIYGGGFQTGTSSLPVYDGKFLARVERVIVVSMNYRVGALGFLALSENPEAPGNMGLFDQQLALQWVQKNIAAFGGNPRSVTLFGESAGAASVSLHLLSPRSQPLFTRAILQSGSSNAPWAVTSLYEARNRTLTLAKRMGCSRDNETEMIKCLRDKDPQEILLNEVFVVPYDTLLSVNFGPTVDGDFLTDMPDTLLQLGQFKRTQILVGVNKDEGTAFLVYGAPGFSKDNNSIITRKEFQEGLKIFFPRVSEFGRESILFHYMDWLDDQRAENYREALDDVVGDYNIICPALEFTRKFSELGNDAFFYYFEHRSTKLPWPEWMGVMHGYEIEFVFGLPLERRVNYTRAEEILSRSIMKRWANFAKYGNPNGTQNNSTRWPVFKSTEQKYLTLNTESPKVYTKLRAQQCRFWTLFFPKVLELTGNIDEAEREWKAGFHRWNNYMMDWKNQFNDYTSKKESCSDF
Description: Inhibition of equine serum BChE using butyrylthiocholine iodide as substrate preincubated for 10 mins prior to substrate addition by Ellman's method
`CCCCC1c2c(nc3c(c2N)CCCC3)Oc2c1c(=O)oc1ccccc21` (configuration not stated) showed an IC50 of 23000 nM. Molecule `COc1ccc(C2c3c(nc4c(c3N)CCCC4)Oc3c2c(=O)oc2ccccc32)cc1OC` (configuration not stated) has an IC50 of 2100 nM. For `COc1cc(C2c3c(nc4c(c3N)CCCC4)Oc3c2c(=O)oc2ccccc32)cc(OC)c1OC` (configuration not stated), the IC50 was 3260 nM. Work on `Nc1c2c(nc3c1C(c1ccccc1)c1c(c4ccccc4oc1=O)O3)CCCC2` (configuration not stated) yielded an IC50 of 1700 nM. `Nc1c2c(nc3c1C(c1ccc4c(c1)OCO4)c1c(c4ccccc4oc1=O)O3)CCCC2` (configuration not stated) was tested, and the IC50 was 570 nM. For `Cc1ccc(C2c3c(nc4c(c3N)CCCC4)Oc3c2c(=O)oc2ccccc32)cc1` (configuration not stated), the IC50 was > 30000 nM. With `Nc1c2c(nc3c1C(c1ccncc1)c1c(c4ccccc4oc1=O)O3)CCCC2` (configuration not stated) the IC50 was > 30000 nM. `Nc1c2c(nc3c1C(c1ccc(Cl)cc1Cl)c1c(c4ccccc4oc1=O)O3)CCCC2` (configuration not stated) was tested, and the IC50 was > 30000 nM. In the case of `Nc1c2c(nc3c1C(c1cccc([N+](=O)[O-])c1)c1c(c4ccccc4oc1=O)O3)CCCC2` (configuration not stated), the IC50 is reported as 18300 nM. `Nc1c2c(nc3c1C(c1ccccc1Cl)c1c(c4ccccc4oc1=O)O3)CCCC2` (configuration not stated) gave an IC50 of 4900 nM. Work on `CC1c2c(nc3c(c2N)CCCC3)Oc2c1c(=O)oc1ccccc21` (configuration not stated) yielded an IC50 of 1220 nM. For `COc1ccc(C2c3c(nc4c(c3N)CCCC4)Oc3c2c(=O)oc2ccccc32)cc1` (configuration not stated), the IC50 was 840 nM. For `Nc1c2c(nc3c1C(c1cccc(F)c1)c1c(c4ccccc4oc1=O)O3)CCCC2` (configuration not stated), the IC50 was 890 nM. Molecule `Nc1c2c(nc3c1C(c1ccc(F)cc1)c1c(c4ccccc4oc1=O)O3)CCCC2` (configuration not stated) has an IC50 of 15700 nM. In the case of `CCC1c2c(nc3c(c2N)CCCC3)Oc2c1c(=O)oc1ccccc21` (configuration not stated), the IC50 is reported as 5600 nM. In the case of `Nc1c2c(nc3c1C(c1ccc(Cl)cc1)c1c(c4ccccc4oc1=O)O3)CCCC2` (configuration not stated), the IC50 is reported as > 30000 nM. For `Nc1c2c(nc3c1C(c1cccc(Cl)c1)c1c(c4ccccc4oc1=O)O3)CCCC2` (configuration not stated), the IC50 was > 30000 nM. Work on `Nc1c2c(nc3c1C(c1cccs1)c1c(c4ccccc4oc1=O)O3)CCCC2` (configuration not stated) yielded an IC50 of 6700 nM.
